Measured values: US8329686B2, “Isatin analogues and uses therefor” (Washington University, priority 2006, dated 2012)
Where two headings read alike, the source gives them in different places.

How the values were obtained:
Assay type in all cases: biochemical
[1] = target: T1, caspase 1 (Homo sapiens, UniProt P29466); test: Enzyme inhibition assay, caspase 1 (fluorogenic Ac-YVAD-AMC)
T1 construct: purchased BIOMOL Research Laboratories (Plymouth Meeting, Pa.)
T1 sequence (P29466 120-297 limits assumed): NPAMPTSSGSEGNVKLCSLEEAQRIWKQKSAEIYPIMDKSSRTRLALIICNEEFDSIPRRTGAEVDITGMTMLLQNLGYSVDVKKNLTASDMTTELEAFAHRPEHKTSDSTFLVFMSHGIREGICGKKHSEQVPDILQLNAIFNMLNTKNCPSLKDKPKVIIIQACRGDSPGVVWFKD
T1 sequence (P29466 317-404 limits assumed): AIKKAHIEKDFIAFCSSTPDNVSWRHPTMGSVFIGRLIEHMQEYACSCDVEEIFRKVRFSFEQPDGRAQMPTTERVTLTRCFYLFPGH

[2] = target: T2, caspase-3 (Homo sapiens, UniProt P42574); test: Enzyme inhibition assay, caspase 3 (fluorogenic Ac-DEVD-AMC)
T2 construct: purchased Sigma-Aldrich (St. Louis, Mo.)
T2 sequence (P42574 29-175 limits assumed): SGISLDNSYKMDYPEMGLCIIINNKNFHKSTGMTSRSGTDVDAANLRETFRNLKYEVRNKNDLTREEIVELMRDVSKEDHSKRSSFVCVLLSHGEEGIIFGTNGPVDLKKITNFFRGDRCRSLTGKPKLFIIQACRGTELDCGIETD
T2 sequence (P42574 176-277 limits assumed): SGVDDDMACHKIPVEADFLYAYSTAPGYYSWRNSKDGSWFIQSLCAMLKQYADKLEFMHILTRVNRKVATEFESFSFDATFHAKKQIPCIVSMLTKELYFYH
Experimental: (§1) Enzyme Assays. Inhibition of recombinant human caspase-3 and other caspases by the isatin analogues was assessed using a fluorometric assay by measuring the accumulation of a fluorogenic product, 7-amino-4-methylcoumarin (7-AMC).
(§2) Enzyme Inhibition Assays. Recombinant human caspases (3, 6, 7, and 8) and their peptide-specific substrates (Ac-DEVDAMC, Ac-VEID-AMC, Ac-DEVD-AMC, and Ac-IETD-AMC, respectively) were purchased from Sigma-Aldrich (St. Louis, Mo.) with the exception of caspase 1 and its substrate (Ac-YVAD-AMC), which were obtained from BIOMOL Research Laboratories (Plymouth Meeting, Pa.). The enzymatic activity of caspases was determined by measuring the accumulation of the fluorogenic product 7-amino-4-methylcoumarin (AMC). All assays were prepared in 96-well format at a volume of 210 μL per well and consisted of 100 mM Na+ HEPES (pH 7.4), 10% sucrose, 100 mM NaCl, 0.1% CHAPS, 5 mM 2-mercaptoethanol, 2 mM EDTA, 10 μM Ac-YVAD-AMC (caspase 1); 20 mMNa^+ HEPES (pH 7.4), 10% sucrose, 100 mMNaCl, 0.1% CHAPS, 2 mM EDTA, 10 μM Ac-DEVD-AMC (caspase 3); 20 mM Na^+ HEPES (pH 7.4), 10% sucrose, 100 mM NaCl, 0.1% CHAPS, 2 mM EDTA, 10 μM Ac-VEID-AMC (caspase 6); 20 mM Na+ HEPES (pH 7.4), 100 mM NaCl, 10% sucrose, 0.1% CHAPS, 5 mM 2-mercaptoethanol, 2 mM EDTA, 10 μM Ac-DEVD-AMC (caspase 7); 20 mM Na+ HEPES (pH 7.4), 10% sucrose, 100 mM NaCl, 0.1% CHAPS, 2 mM EDTA, 10 μM Ac-IETD-AMC (caspase 8).
(§3) Recombinant caspases were first assayed to determine the optimal concentration for each experiment. Optimal concentrations were based in the linear range of the enzyme activation curves. Peptide inhibitors with known IC50 values were tested together with the compounds as a control for each caspase assay. […] Peptide and nonpeptide inhibitors were dissolved in DMSO, and a 2 serial dilution was performed prior to screening in order to obtain desired concentrations. 10 μL was added to each well containing 100 μL caspase solution and allowed to incubate on ice for 30 min. […] The final concentration of DMSO in all wells was 5% of the total volume. In caspase-1 and caspase-7 assays, 10 mM 2-mercaptoethanol was added to the substrate solution for full activation of the enzymes.
(§4) Compounds were tested in duplicate, and IC50 curves were calculated for all inhibitors assayed. Final IC50s were the average of three independent experiments.

[3] = target: T3, caspase 6 (Homo sapiens, UniProt P55212); test: Enzyme inhibition assay, caspase 6 (fluorogenic Ac-VEID-AMC)
T3 construct: purchased Sigma-Aldrich (St. Louis, Mo.)
T3 sequence (P55212 24-179 limits assumed): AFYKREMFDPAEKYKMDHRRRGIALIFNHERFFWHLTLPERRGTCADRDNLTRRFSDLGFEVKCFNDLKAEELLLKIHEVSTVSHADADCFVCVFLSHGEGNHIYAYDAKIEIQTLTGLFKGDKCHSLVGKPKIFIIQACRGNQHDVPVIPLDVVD
T3 sequence (P55212 194-293 limits assumed): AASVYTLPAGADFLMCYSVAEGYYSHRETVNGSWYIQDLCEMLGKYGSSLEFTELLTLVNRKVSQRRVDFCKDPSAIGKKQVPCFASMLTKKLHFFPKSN
Experimental: as §1, §2, §3, §4

[4] = target: T4, caspase 7 (Homo sapiens, UniProt P55210); test: Enzyme inhibition assay, caspase 7 (fluorogenic Ac-DEVD-AMC)
T4 construct: purchased Sigma-Aldrich (St. Louis, Mo.)
T4 sequence (P55210 24-198 limits assumed): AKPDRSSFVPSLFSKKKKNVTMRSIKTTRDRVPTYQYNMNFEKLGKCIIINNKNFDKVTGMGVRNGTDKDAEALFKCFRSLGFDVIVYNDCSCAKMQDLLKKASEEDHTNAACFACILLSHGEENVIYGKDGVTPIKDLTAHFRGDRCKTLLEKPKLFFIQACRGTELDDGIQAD
T4 sequence (P55210 207-303 limits assumed): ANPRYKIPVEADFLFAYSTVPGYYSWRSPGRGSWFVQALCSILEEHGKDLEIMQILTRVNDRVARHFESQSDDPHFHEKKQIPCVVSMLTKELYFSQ
Experimental: as §1, §2, §3, §4

[5] = target: T5, caspase 8 (Homo sapiens, UniProt Q14790); test: Enzyme inhibition assay, caspase 8 (fluorogenic Ac-IETD-AMC)
T5 construct: purchased Sigma-Aldrich (St. Louis, Mo.)

[6] = target: T2, caspase-3; test: Reversibility assay (gel filtration)
Experimental: Then the mixtures were run through the gel filtration column (Bio-Spin 6 Tris columns from Bio-Rad Laboratories, Hercules, Calif.) to remove the free compounds according to the manufacture's instruction. Briefly, 50 μl of the incubation mixture was loaded on the top of the column. The column was then centrifuged at 1000×g for 4 min at 4° C. The resulting elutant was designated as elutant A (for no treatment sample), B (for Z-DEVD-FMK-treated sample) or C (for 30d-treated sample). The elutant was assayed for caspase 3 activity as described in enzyme inhibition assays above. Briefly, 40 μl of the elutant, 60 μl assay buffer and 100 μl substrate (10 μM Ac-DEVD-AMC) were incubated for 1 hour at 37° C. Amount of AMC released was determined using a Victor microplate fluorometer. The recovered caspase-3 activity after gel filtration (%) was calculated.

T5 sequence (Q14790 217-374 limits assumed): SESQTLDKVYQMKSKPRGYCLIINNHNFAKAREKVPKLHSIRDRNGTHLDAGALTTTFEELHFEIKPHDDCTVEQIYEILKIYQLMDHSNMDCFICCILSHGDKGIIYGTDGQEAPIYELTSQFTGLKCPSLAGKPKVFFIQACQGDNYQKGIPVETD
T5 sequence (Q14790 385-479 limits assumed): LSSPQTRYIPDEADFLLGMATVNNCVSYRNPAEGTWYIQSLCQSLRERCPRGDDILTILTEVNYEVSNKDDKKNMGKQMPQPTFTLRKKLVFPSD

Q: Which IC50 [1] does the source give for `COc1ccc(CN2C(=O)C(=C(C#N)C#N)c3cc(S(=O)(=O)N4CCCC4COc4cccnc4)ccc32)cc1` (stereo not shown) [Compound 30d, 2-{1-(4-Methoxy-benzyl)-2-oxo-5-[2-(pyridin-3-yloxymethyl)-pyrrolidine-1-sulfonyl]-1,2-dihydro-indol-3-yl-idene}-malononitrile] here?
A: 3900 nM

Q: What about the IC50 ([1]; IC50 (nM) Casp-1, Table 7) of the same molecule?
A: 3900 ± 530 nM

Q: What about the IC50 ([1]; read-out: IC50 for caspase-1) of the same molecule?
A: 2700 to 3200 nM

Q: What about the IC50 ([2]; IC50 (nM) Casp-3, Table 7) of the same molecule?
A: 7.8 ± 1.5 nM

Q: What about the IC50 ([2]; IC50 (nM) Caspase 3, Table 2) of the same molecule?
A: 7.8 ± 1.5 nM

Q: What about the IC50 ([2]; IC50 for caspase-3) of the same molecule?
A: 7.8 nM

Q: What about the IC50 [3] of the same molecule?
A: 610 ± 113 nM

Q: What about the IC50 ([3]; read-out: IC50 for caspase-6) of the same molecule?
A: 515 to 770 nM

Q: What about the IC50 ([4]; IC50 (nM) Casp-7, Table 7) of the same molecule?
A: 29.6 ± 1.4 nM

Q: And the IC50 ([4]; IC50 (nM) Caspase 7, Table 2)?
A: 29.6 ± 1.4 nM

Q: What about the IC50 ([4]; read-out: IC50 for caspase-7) of the same molecule?
A: 15.1 nM

Q: What about the IC50 ([5]; Table 2, read-out: IC50 (nM) Caspase 8) of the same molecule?
A: > 50000 nM

Q: And the IC50 ([5]; Table 7, read-out: IC50 (nM) Casp-8)?
A: > 50000 nM

Q: What about the IC50 ([5]; read-out: IC50 for caspase-8) of the same molecule?
A: > 50000 nM

Q: And the “caspase 3 activity after incubation with inhibitor” value ([6]; 3 μM, 1 hour on ice, before gel filtration)?
A: fully inhibited

Q: And the “recovered caspase-3 activity after gel filtration” value ([6]; elutant compared to untreated elutant A)?
A: full caspase 3 activity
